Earlier results in US20200138710A1, “COMPOSITIONS WITH PERMEATION ENHANCERS FOR DRUG DELIVERY” (Children's Medical Center Corporation, priority 2016, published 2020).

Structure (SMILES) | Log P
CO/N=C(\C(=O)N[C@@H]1C(=O)N2C(C(=O)O)=C(CSc3nc(=O)c(=O)[nH]n3C)CS[C@H]12)c1csc(N)n1 [Ceftriaxone] | −1.47
CO/N=C(\C(=O)N[C@@H]1C(=O)N2C(C(=O)O)=C(COC(N)=O)CS[C@H]12)c1ccco1 [Cefuroxime] | −0.16
CC[C@H]1OC(=O)[C@H](C)[C@@H](O[C@H]2C[C@@](C)(OC)[C@@H](O)[C@H](C)O2)[C@H](C)[C@@H](O[C@@H]2O[C@H](C)C[C@H](N(C)C)[C@H]2O)[C@](C)(O)C[C@@H](C)CN(C)[C@H](C)[C@@H](O)[C@]1(C)O [Azithromycin] | 4.02
